# According to patent US4882313A, “Carboxamide derivatives of glycopeptides” (SmithKline Beckman Corporation, priority 1987, dated 1989):
# How the values were obtained:
# [1] = tested on: Staphylococcus saprophyticus; test: standard microtiter assay, minimum inhibitory concentration; type: cell-based; conditions: Test Organism 12, Staphylococcus saprophyticus
# Excerpt: (§1) Representative results of standard microtiter assays are reported in Table 1 which follows, as the minimum inhibitory concentration of antibiotic (mg/ml). In Table 1, test organisms 1-5 were different strains of Staphylococcus aureus; 6, 8, 11, 13 and 14 were different strains of Staphylococcus epidermidis; 7 was a Staphylococcus haemolyticus; 9 and 10 were different strains of Streptococcus faecalis; and 12 was a Staphylococcus saprophyticus.
# [2] = tested on: Streptococcus faecalis; test: as above; type: cell-based
# Excerpt: as §1
# [3] = tested on: Staphylococcus aureus; test: as above; type: cell-based
# Excerpt: as §1
# [4] = tested on: Staphylococcus haemolyticus; test: as above; type: cell-based; conditions: Test Organism 7, Staphylococcus haemolyticus
# Excerpt: as §1
# [5] = tested on: Staphylococcus epidermidis; test: as above; type: cell-based; set-up: minimum inhibitory concentration of antibiotic, Test Organism 8: unit not given here
# Excerpt: as §1
# [6] = pI (analytical data, Table 2); type: physicochemical
# Excerpt: Using substantially the procedures of both Examples 1 and 2, the compounds of Examples 3-15 were obtained by using the appropriate glycopeptide and amine starting materials.
smiles,measurement,setting,value
"CNC1C(=O)NC2C(=O)NC(C(=O)NC3C(=O)NC4C(=O)NC(C(=O)NC(C(N)=O)c5cc(O)cc(OC6OC(CO)C(O)C(O)C6O)c5-c5cc4ccc5O)C(O)c4ccc(c(Cl)c4)Oc4cc3cc(c4OC3OC(C(N)=O)C(O)C(O)C3NC(=O)CCCCCCCCC(C)C)Oc3ccc(cc3)C2O)c2cc(cc(O)c2Cl)Oc2cc1ccc2O (stereo not drawn) [Compound 2q, AAJ-271 C1 diamide]","minimum inhibitory concentration of antibiotic, Test Organism 12",[1],12500 µg/mL
same,"minimum inhibitory concentration of antibiotic, Test Organism 9","[2]; Test Organism 9, strain of Streptococcus faecalis",200 µg/mL
same,"minimum inhibitory concentration of antibiotic, Test Organism 10","[2]; Test Organism 10, strain of Streptococcus faecalis",200 µg/mL
same,"minimum inhibitory concentration of antibiotic, Test Organism 1","[3]; Test Organism 1, strain of Staphylococcus aureus",800 µg/mL
same,"minimum inhibitory concentration of antibiotic, Test Organism 2","[3]; Test Organism 2, strain of Staphylococcus aureus",1600 µg/mL
same,"minimum inhibitory concentration of antibiotic, Test Organism 3","[3]; Test Organism 3, strain of Staphylococcus aureus",800 µg/mL
same,"minimum inhibitory concentration of antibiotic, Test Organism 4","[3]; Test Organism 4, strain of Staphylococcus aureus",> 1600 µg/mL
same,"minimum inhibitory concentration of antibiotic, Test Organism 5","[3]; Test Organism 5, strain of Staphylococcus aureus",1600 µg/mL
same,"minimum inhibitory concentration of antibiotic, Test Organism 7",[4],3100 µg/mL
same,"minimum inhibitory concentration of antibiotic, Test Organism 6","[5]; Test Organism 6, strain of Staphylococcus epidermidis",12500 µg/mL
same,"minimum inhibitory concentration of antibiotic, Test Organism 8","[5]; Test Organism 8, strain of Staphylococcus epidermidis",6.3
same,"minimum inhibitory concentration of antibiotic, Test Organism 11","[5]; Test Organism 11, strain of Staphylococcus epidermidis",12500 µg/mL
same,"minimum inhibitory concentration of antibiotic, Test Organism 13","[5]; Test Organism 13, strain of Staphylococcus epidermidis",3100 µg/mL
same,"minimum inhibitory concentration of antibiotic, Test Organism 14","[5]; Test Organism 14, strain of Staphylococcus epidermidis",3100 µg/mL
same,pI,[6],7.3
